The results in this text go back to patent EP4667458A1 (Kanaph Therapeutics Inc., priority 2023, dated 2024).

One assay concerns the target T1, SOS1 (Homo sapiens, UniProt Q07889).
T1 construct: adding equal amounts of HIS-SOS1cat (160 nM; Cytoskeleton, US); His; purchased Cytoskeleton, US
T1 sequence (Q07889 564-1049 limits assumed): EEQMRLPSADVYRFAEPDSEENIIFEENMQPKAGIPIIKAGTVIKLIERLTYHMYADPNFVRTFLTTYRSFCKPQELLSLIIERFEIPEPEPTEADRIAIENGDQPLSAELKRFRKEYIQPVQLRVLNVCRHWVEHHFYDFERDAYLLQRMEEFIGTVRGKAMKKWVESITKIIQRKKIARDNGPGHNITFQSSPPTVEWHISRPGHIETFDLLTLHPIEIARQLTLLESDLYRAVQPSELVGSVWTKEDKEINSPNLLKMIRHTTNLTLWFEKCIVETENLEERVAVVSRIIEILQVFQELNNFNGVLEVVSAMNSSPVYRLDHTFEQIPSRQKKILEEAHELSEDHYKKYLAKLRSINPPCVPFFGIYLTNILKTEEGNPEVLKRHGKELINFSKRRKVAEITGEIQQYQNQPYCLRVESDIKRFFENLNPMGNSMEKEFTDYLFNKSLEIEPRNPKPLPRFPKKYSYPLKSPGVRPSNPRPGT
The assay is described as follows: SOS-catalyzed nucleotide exchange assay (HTRF, SOS1-mediated GTP loading of KRAS G12D). Format: biochemical. The note with it: GST-KRAS G12D, HIS-SOS1cat, EDA-GTP-DY-647P1; compound 128 pM to 10 µM; read-out: SOS-catalyzed nucleotide exchange assay (IC50 range, Grade). Summed up:
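SOS1cat (HIS-tagged) preincubated 10 min at room temperature with compound (128 pM-10 µM), then GST-KRAS G12D with anti-GST terbium added; GTP loading tracked as HTRF with a DY-647P1 GTP analogue after 30 min, buffer HEPES pH 7.4. GEF-free wells for normalization; IC50 derived.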

In the next assay the target is T2, KRAS^G12C::SOS1 (Homo sapiens, UniProt Q07889).
T2 sequence (Q07889 1-1333): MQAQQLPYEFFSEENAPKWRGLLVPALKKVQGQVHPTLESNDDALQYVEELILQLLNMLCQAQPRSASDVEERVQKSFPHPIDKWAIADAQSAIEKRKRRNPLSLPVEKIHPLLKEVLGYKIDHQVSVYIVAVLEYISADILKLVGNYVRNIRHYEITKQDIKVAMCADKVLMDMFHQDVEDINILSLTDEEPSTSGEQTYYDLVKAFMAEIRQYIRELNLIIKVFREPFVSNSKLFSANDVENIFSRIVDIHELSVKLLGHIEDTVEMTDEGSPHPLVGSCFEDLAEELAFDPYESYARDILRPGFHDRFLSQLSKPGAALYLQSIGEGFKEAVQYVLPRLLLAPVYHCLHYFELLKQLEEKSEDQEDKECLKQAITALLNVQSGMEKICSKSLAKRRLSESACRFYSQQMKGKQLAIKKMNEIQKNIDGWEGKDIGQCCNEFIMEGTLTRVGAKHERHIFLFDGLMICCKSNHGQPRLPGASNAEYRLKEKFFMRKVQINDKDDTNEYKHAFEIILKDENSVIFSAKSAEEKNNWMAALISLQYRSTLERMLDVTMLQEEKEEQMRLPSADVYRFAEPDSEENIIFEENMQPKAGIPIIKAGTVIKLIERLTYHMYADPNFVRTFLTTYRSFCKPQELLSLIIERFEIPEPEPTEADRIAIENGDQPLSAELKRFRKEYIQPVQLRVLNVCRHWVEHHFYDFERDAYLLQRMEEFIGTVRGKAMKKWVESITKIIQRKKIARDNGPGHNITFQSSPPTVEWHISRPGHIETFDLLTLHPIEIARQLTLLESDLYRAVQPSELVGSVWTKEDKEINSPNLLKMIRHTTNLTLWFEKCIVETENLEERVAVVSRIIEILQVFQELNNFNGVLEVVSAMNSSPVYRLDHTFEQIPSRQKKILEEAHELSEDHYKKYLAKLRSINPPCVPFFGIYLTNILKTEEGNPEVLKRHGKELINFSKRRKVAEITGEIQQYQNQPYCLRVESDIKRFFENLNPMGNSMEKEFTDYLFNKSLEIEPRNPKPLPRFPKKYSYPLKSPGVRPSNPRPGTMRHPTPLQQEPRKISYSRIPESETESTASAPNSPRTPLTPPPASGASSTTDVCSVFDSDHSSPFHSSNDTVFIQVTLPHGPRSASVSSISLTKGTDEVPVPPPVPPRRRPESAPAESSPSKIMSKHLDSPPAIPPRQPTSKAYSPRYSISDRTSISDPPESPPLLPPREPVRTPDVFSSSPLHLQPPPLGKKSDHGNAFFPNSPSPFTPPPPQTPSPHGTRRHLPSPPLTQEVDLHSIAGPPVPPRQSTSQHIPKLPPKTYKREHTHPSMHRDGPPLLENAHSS
Briefly: KRAS G12C::SOS1 protein-protein interaction (PPI) inhibition assay (HTRF binding kit).

In the case of `C[C@@H](NC(=O)c1ccc(=O)n([C@H]2CCCC[C@@H]2O)n1)c1cc(N)cc(C(F)(F)F)c1` [Example 125, N-((R)-1-(3-amino-5-(trifluoromethyl)phenyl)ethyl)-1-((1S,2S)-2-hydroxycyclohexyl)-6-oxo-1,6-dihydropyridazine-3-carboxamide], at SOS1, the IC50 was in the range of 1 to 10 µM. Take `C[C@@H](NC(=O)c1ccc(=O)n(C2=CCN(C)CC2)n1)c1cc(N)cc(C(F)(F)F)c1` [Example 126, N-[(1R)-1-[3-amino-5-(trifluoromethyl)phenyl]ethyl]-1-(1-methyl-1,2,3,6-tetrahydropyridin-4-yl)-6-oxo-1,6-dihydropyridazine-3-carboxamide]: the IC50 at SOS1 is under 1 µM.

With `COC1CC=C(n2nc(C(=O)N[C@H](C)c3cc(N)cc(C(F)(F)F)c3)ccc2=O)CC1` (stereo partly drawn) [Example 127, N-[(1R)-1-[3-amino-5-(trifluoromethyl)phenyl]ethyl]-1-(4-methoxycyclohex-1-en-1-yl)-6-oxo-1,6-dihydropyridazine-3-carboxamide], the IC50 on SOS1 was in the range of 1 to 10 µM.

As for `C[C@@H](NC(=O)c1ccc(=O)n(C2=CCOCC2)n1)c1cc(N)cc(C(F)(F)F)c1` [Example 128, N-[(1R)-1-[3-amino-5-(trifluoromethyl)phenyl]ethyl]-1-(3,6-dihydro-2H-pyran-4-yl)-6-oxo-1,6-dihydropyridazine-3-carboxamide], the IC50 on SOS1 was under 1 µM. On to `CC(=O)Nc1cccc(-n2cc(C(=O)N[C@H](C)c3cc(N)cc(C(F)(F)F)c3)ccc2=O)c1` [Example 129, N-[(1R)-1-[3-amino-5-(trifluoromethyl)phenyl]ethyl]-1-(3-acetamidophenyl)-6-oxo-1,6-dihydropyridine-3-carboxamide], for which the IC50 on SOS1 is under 1 µM. The same measure, in the same setting: the same measure for `C[C@@H](NC(=O)c1ccc(=O)n(-c2cccc(NC(=O)C3CC3)c2)c1)c1cc(N)cc(C(F)(F)F)c1` [Example 130, N-[(1R)-1-[3-amino-5-(trifluoromethyl)phenyl]ethyl]-1-(3-cyclopropaneamidophenyl)-6-oxo-1,6-dihydropyridine-3-carboxamide]: under 1 µM; for `CNCc1ccc(Cl)cc1-c1cnc([C@@H](C)NC(=O)c2ccc(=O)n(-c3ccccc3F)n2)s1` [Example 137, N-[(1R)-1-[5-[5-chloro-2-(methylaminomethyl)phenyl]thiazol-2-yl]ethyl]-1-(2-fluorophenyl)-6-oxo-pyridazine-3-carboxamide]: under 1 µM. As to `CNCc1ccc(Cl)cc1-c1cnc([C@@H](C)NC(=O)c2ccc(=O)n(-c3ccccc3F)c2)s1` [Example 138, N-[(1R)-1-[5-[5-chloro-2-(methylaminomethyl)phenyl]thiazol-2-yl]ethyl]-1-(2-fluorophenyl)-6-oxo-pyridine-3-carboxamide], the IC50 on SOS1 was under 1 µM. With `COc1ccc(-n2cc(C(=O)N[C@H](C)c3cccc(C(F)(F)CO)c3F)ccc2=O)c(F)c1OC` [Example 140, N-[(1R)-1-[3-(1,1-difluoro-2-hydroxy-ethyl)-2-fluoro-phenyl]ethyl]-1-(2-fluoro-3,4-dimethoxy-phenyl)-6-oxo-pyridine-3-carboxamide], the IC50 at KRAS^G12C::SOS1 and on SOS1 was under 1 µM throughout. For `C[C@@H](NC(=O)c1ccc(=O)n(-c2cccnc2F)n1)c1cccc(C(F)(F)CO)c1F` [Example 141, N-[(1R)-1-[3-(1,1-difluoro-2-hydroxy-ethyl)-2-fluorophenyl]ethyl]-1-(2-fluoro-3-pyridyl)-6-oxo-pyridazine-3-carboxamide], the IC50 at KRAS^G12C::SOS1 and on SOS1 was under 1 µM throughout. Turning to `CC(C)Oc1ccc(-n2nc(C(=O)N[C@H](C)c3cc(N)cc(C(F)(F)F)c3)ccc2=O)cc1` [Example 142, N-[(1R)-1-[3-amino-5-(trifluoromethyl)phenyl]ethyl]-1-(4-isopropoxyphenyl)-6-oxo-pyridazine-3-carboxamide], the IC50 on KRAS^G12C::SOS1 and on SOS1 was under 1 µM each time. For `C[C@@H](NC(=O)c1ccc(=O)n(-c2ccccc2OC(F)F)n1)c1cccc(C(F)(F)CO)c1F` [Example 143, N-[(1R)-1-[3-(1,1-difluoro-2-hydroxy-ethyl)-2-fluoro-phenyl]ethyl]-1-[2-(difluoromethoxy)phenyl]-6-oxo-pyridazine-3-carboxamide], the IC50 at KRAS^G12C::SOS1 and at SOS1 was under 1 µM in each case.

Consider `C[C@@H](NC(=O)c1ccc(=O)n(-c2ccccc2F)n1)c1cccc(I)c1F` [Example 144, N-[(1R)-1-(2-fluoro-3-iodo-phenyl)ethyl]-1-(2-fluorophenyl)-6-oxo-pyridazine-3-carboxamide], for which the figures for the IC50 on KRAS^G12C::SOS1 and on SOS1 were under 1 µM and 1 to 10 µM, respectively. As to `C[C@@H](NC(=O)c1ccc(=O)n(-c2cccnc2F)c1)c1cc(N)cc(C(F)(F)F)c1` [Example 148, N-[(1R)-1-[3-amino-5-(trifluoromethyl)phenyl]ethyl]-1-(2-fluoro-3-pyridyl)-6-oxo-pyridine-3-carboxamide], the IC50 at KRAS^G12C::SOS1 and on SOS1 was over 10 µM each time. `C[C@@H](NC(=O)c1ccc(=O)n(-c2cccc(-c3ccnn3C(F)F)c2)n1)c1cc(N)cc(C(F)(F)F)c1` [Example 149, N-[(1R)-1-[3-amino-5-(trifluoromethyl)phenyl]ethyl]-1-[3-[2-(difluoromethyl)pyrazol-3-yl]phenyl]-6-oxo-pyridazine-3-carboxamide]: the IC50 on KRAS^G12C::SOS1 and on SOS1 was under 1 µM in each case.

As to `C[C@@H](NC(=O)c1ccc(=O)n(-c2cccc(-c3ccnn3C(F)F)c2)n1)c1cccc(C(F)(F)CO)c1F` [Example 150, N-[(1R)-1-[3-(1,1-difluoro-2-hydroxy-ethyl)-2-fluoro-phenyl]ethyl]-1-[3-[2-(difluoromethyl)pyrazol-3-yl]phenyl]-6-oxo-pyridazine-3-carboxamide], the IC50 at KRAS^G12C::SOS1 and on SOS1 was under 1 µM throughout. On to `COc1ccc(-n2nc(C(=O)N[C@H](C)c3cccc(C(F)(F)CO)c3F)ccc2=O)c(OC)c1` [Example 151, N-[(1R)-1-[3-(1,1-difluoro-2-hydroxy-ethyl)-2-fluoro-phenyl]ethyl]-1-(2,4-dimethoxyphenyl)-6-oxo-pyridazine-3-carboxamide], for which the IC50 on KRAS^G12C::SOS1 and at SOS1 was under 1 µM throughout.

Regarding `COc1ccc(-n2nc(C(=O)N[C@H](C)c3cc(N)cc(C(F)(F)F)c3)ccc2=O)c(F)c1` [Example 152, N-[(1R)-1-[3-amino-5-(trifluoromethyl)phenyl]ethyl]-1-(2-fluoro-4-methoxy-phenyl)-6-oxo-pyridazine-3-carboxamide], the IC50 on KRAS^G12C::SOS1 and on SOS1 was under 1 µM throughout.

Turning to “(R)-1-([1,1'-biphenyl]-4-yl)-N-(1-(3-amino-5-(trifluoromethyl)phenyl)ethyl)-6-oxo-1,6-dihydropyridazine-3-carboxamide [Example 24]”, at SOS1, the IC50 is 1 to 10 µM.
